Laboratory results: ChEMBL document CHEMBL1151522, “Syntheses of homoserine phosphate analogs as potential inhibitors of bacterial threonine synthase” (Bioorg Med Chem Lett, 1994)

How the values were obtained:
[1] = Inhibition of threonine synthase in Escherichia coli; c: indicates No inhibition at 10 mM
[2] = test system: Escherichia coli; experiment: Inhibition of Escherichia coli threonine synthase expressed as inactivation constant
[3] = Inhibition of threonine synthase in Escherichia coli
[4] = test system: Escherichia coli; experiment: Inhibition of Escherichia coli threonine synthase expressed as inactivation constant; d: indicates competitive inhibitor

Row | SMILES | Ki [1] | K inact [2] [min⁻¹] | Ki [3] [µM] | K inact [4]
1 | NC(C/C=C\P(=O)(O)O)C(=O)O (stereo not drawn) | No inhibition |  |  | 
2 | NC(/C=C\CP(=O)(O)O)C(=O)O (stereo not drawn) |  | 1.5 | 100000 | 
3 | NC(/C=C/CP(=O)(O)O)C(=O)O (stereo not drawn) |  | 0.25 | 400 | 
4 | NC(CNCP(=O)(O)O)C(=O)O (stereo not drawn) |  | 1.44 | 59 | 
5 | NC(CC#CP(=O)(O)O)C(=O)O (stereo not drawn) | No inhibition |  |  | 
6 | NC(C/C=C/P(=O)(O)O)C(=O)O (stereo not drawn) |  |  | 540 | Competitive inhibitor
7 | NC(CSCP(=O)(O)O)C(=O)O (stereo not drawn) |  |  | 33 | d
8 | NC(COCP(=O)(O)O)C(=O)O (stereo not drawn) | No inhibition |  |  | 
